In US4929751A, “Vinyl tricarbonyl compounds and methods of making the same” (Yale University, priority 1987, dated 1990):
Read-outs that look alike come from different tables or passages of the source.

Legend:
Test in all cases: growth inhibition of tumor cell line
Assay type in all cases: cell-based
UO-31 (renal) = settings: Homo sapiens, logarithm of the concentration inhibiting growth by 50%
Text: (§1) t-Butyl 2,3-dioxo-pent-4-enoate hydrate (A) was contacted with various cell lines as indicated on Table 1 hereinbelow in the column designated as "CELL" or "TUMOR". […]
(§2) Table 1 reports and illustrates the results obtained by testing t-butyl 2,3-dioxo-pent-4-enoate hydrate. The concentration of this compound found to inhibit the growth of each cell line listed under "CELL" by 50% is reported under "LOG(IC50)" as the logarithm of the concentration. The units of concentration are either molarity in which case an "M" is shown in parentheses next to the LOG(IC50) label, or micrograms per ml, in which case a "W" (for weight) is shown in parenthesis. The cell line names are grouped by disease type and the disease type names are listed on the far left.

P388 = settings: Mus musculus
Text: as §1, §2

OVCAR-3 (ovarian) = settings: Homo sapiens
Text: as §1, §2

SK-MEL5 (melanoma) = settings: Homo sapiens
Text: as §1, §2

CCRF-CEM (leukemia) = settings: Homo sapiens
Text: as §1, §2

[1] = test system: H358 (nonsmall cell lung cancer); settings: Homo sapiens, NCI-H358
Text: as §1, §2

[2] = test system: EKV-X (nonsmall cell lung cancer); settings: Homo sapiens, EKVX
Text: as §1, §2

[3] = test system: H146 (small cell lung cancer); settings: Homo sapiens, NCI-H146
Text: as §1, §2

SW620 (colon) = settings: Homo sapiens
Text: as §1, §2

[4] = test system: H520 (nonsmall cell lung cancer); settings: Homo sapiens, NCI-H520
Text: as §1, §2

P388/ADR = settings: Mus musculus
Text: as §1, §2

CAKI-1 (renal) = settings: Homo sapiens
Text: as §1, §2

A704 (renal) = settings: Homo sapiens
Text: as §1, §2

HCC-2998 (colon) = settings: Homo sapiens
Text: as §1, §2

OVCAR-8 (ovarian) = settings: Homo sapiens
Text: as §1, §2

A2780 (ovarian) = settings: Homo sapiens
Text: as §1, §2

MCF-7 (breast) = settings: Homo sapiens
Text: as §1, §2

[5] = test system: H460 (nonsmall cell lung cancer); settings: Homo sapiens, NCI-H460, logarithm of the concentration inhibiting growth by 50%
Text: as §1, §2

[6] = test system: SNB-19 (central nervous system); settings: Homo sapiens
Text: as §1, §2

MALME-3M (melanoma) = settings: Homo sapiens
Text: as §1, §2

[7] = test system: SNB-44 (central nervous system)
Text: as §1, §2

[8] = test system: SK-MES-1 (nonsmall cell lung cancer); settings: Homo sapiens, SK-MES1, logarithm of the concentration inhibiting growth by 50%
Text: as §1, §2

[9] = test system: H125 (nonsmall cell lung cancer); settings: Homo sapiens, NCI-H125
Text: as §1, §2

[10] = test system: SNB-75 (central nervous system); settings: Homo sapiens
Text: as §1, §2

[11] = test system: H82 (small cell lung cancer)
Text: as §1, §2

[12] = test system: H522 (nonsmall cell lung cancer); settings: Homo sapiens, NCI-H522
Text: as §1, §2

[13] = logarithm of the concentration inhibiting growth by 50%, read-out: LOG(IC50) (converted)

`C=CC(=O)C(O)(O)C(=O)OC(C)(C)C` [t-butyl 2,3-dioxo-pent-4-enoate hydrate] showed an IC50 (UO-31 (renal)) greater than 251 µM, an IC90 (P388) of 248 µM and an IC50 (P388; [13]) of 100 µM. It also gave an IC50 (P388; read-out: IC-50 MEAN) of 114 µM, an IC90 (OVCAR-3 (ovarian)) of 270 µM and an IC50 (OVCAR-3 (ovarian); [13]) of 100 µM. The IC50 (OVCAR-3 (ovarian); read-out: IC-50 MEAN) was 96.6 µM, the IC90 (SK-MEL5 (melanoma); SK-MEL-5) was 222 µM and the IC50 (SK-MEL5 (melanoma); SK-MEL-5, logarithm of the concentration inhibiting growth by 50%, read-out: LOG(IC50) (converted)) was 63.1 µM. The IC50 (SK-MEL5 (melanoma); SK-MEL-5, read-out: IC-50 MEAN) was 74.2 µM, the IC50 (CCRF-CEM (leukemia); CCRF-CE, logarithm of the concentration inhibiting growth by 50%, read-out: LOG(IC50) (converted)) was 7.94 µM and the IC50 (CCRF-CEM (leukemia); read-out: IC-50 MEAN) was 8.05 µM. For the same molecule, the IC50 ([1]; H358, logarithm of the concentration inhibiting growth by 50%, read-out: LOG(IC50) (converted)) was 158 µM, the IC50 ([1]; read-out: IC-50 MEAN) was 155 µM and the IC50 [2, 13] was 200 µM. It also gave an IC50 ([2]; read-out: IC-50 MEAN) of 226 µM, an IC50 ([3]; H146, logarithm of the concentration inhibiting growth by 50%, read-out: LOG(IC50) (converted)) of 126 µM and an IC50 ([3]; read-out: IC-50 MEAN) of 124 µM. It also gave an IC90 (SW620 (colon); SW-620) of 234 µM, an IC50 (SW620 (colon); SW-620, logarithm of the concentration inhibiting growth by 50%, read-out: LOG(IC50) (converted)) of 63.1 µM and an IC50 (SW620 (colon); SW-620, read-out: IC-50 MEAN) of 58 µM. For the same molecule, the IC50 ([4]; H520, logarithm of the concentration inhibiting growth by 50%, read-out: LOG(IC50) (converted)) was 100 µM, the IC50 ([4]; read-out: IC-50 MEAN) was 105 µM and the IC90 (P388/ADR) was 244 µM. The IC50 (P388/ADR; P388/AD, logarithm of the concentration inhibiting growth by 50%, read-out: LOG(IC50) (converted)) was 126 µM, the IC50 (P388/ADR; read-out: IC-50 MEAN) was 118 µM and the IC90 (CAKI-1 (renal)) was 202 µM. For the same molecule, the IC50 (CAKI-1 (renal); [13]) was 50.1 µM, the IC50 (CAKI-1 (renal); read-out: IC-50 MEAN) was 64.9 µM and the IC90 (A704 (renal)) was 229 µM. For the same molecule, the IC50 (A704 (renal); [13]) was 50.1 µM, the IC50 (A704 (renal); read-out: IC-50 MEAN) was 46.6 µM and the IC50 (HCC-2998 (colon); HCC 2998, HCC2998, logarithm of the concentration inhibiting growth by 50%, read-out: LOG(IC50)) was greater than 50.1 µM. The IC50 (HCC-2998 (colon); HCC-2998, read-out: IC-50 MEAN) was 52 µM, the IC90 (OVCAR-8 (ovarian)) was 263 µM and the IC50 (OVCAR-8 (ovarian); [13]) was 126 µM. The IC50 (OVCAR-8 (ovarian); read-out: IC-50 MEAN) was 114 µM, the IC90 (A2780 (ovarian)) was 249 µM and the IC50 (A2780 (ovarian); [13]) was 63.1 µM. The IC50 (A2780 (ovarian); read-out: IC-50 MEAN) was 70.3 µM, the IC90 (MCF-7 (breast); MCF7) was 232 µM and the IC50 (MCF-7 (breast); MCF7, logarithm of the concentration inhibiting growth by 50%, read-out: LOG(IC50) (converted)) was 100 µM. For the same molecule, the IC50 (MCF-7 (breast); MCF7, read-out: IC-50 MEAN) was 98.1 µM, the IC50 [5] was greater than 251 µM and the IC90 [6] was 243 µM. For the same molecule, the IC50 [6, 13] was 100 µM, the IC50 ([6]; read-out: IC-50 MEAN) was 95.2 µM and the IC90 (MALME-3M (melanoma)) was 180 µM. The IC50 (MALME-3M (melanoma); MALME-3, logarithm of the concentration inhibiting growth by 50%, read-out: LOG(IC50) (converted)) was 100 µM, the IC50 (MALME-3M (melanoma); read-out: IC-50 MEAN) was 78.8 µM and the IC90 ([7]; SNB44) was 235 µM. It also gave an IC50 ([7]; SNB44, logarithm of the concentration inhibiting growth by 50%, read-out: LOG(IC50) (converted)) of 100 µM, an IC50 ([7]; SNB44, read-out: IC-50 MEAN) of 94 µM and an IC50 [8] greater than 25.1 µM. For the same molecule, the IC50 ([9]; H125, logarithm of the concentration inhibiting growth by 50%, read-out: LOG(IC50) (converted)) was 50.1 µM, the IC50 ([9]; read-out: IC-50 MEAN) was 73.3 µM and the IC90 [10] was 231 µM. For the same molecule, the IC50 [10, 13] was 79.4 µM, the IC50 ([10]; read-out: IC-50 MEAN) was 81.5 µM and the IC50 ([11]; H82, logarithm of the concentration inhibiting growth by 50%, read-out: LOG(IC50) (converted)) was 39.8 µM. The IC90 ([11]; Homo sapiens, NCI-H82) was 172 µM, the IC50 ([11]; Homo sapiens, NCI-H82, read-out: IC-50 MEAN) was 36.7 µM and the IC50 ([12]; H522, logarithm of the concentration inhibiting growth by 50%, read-out: LOG(IC50) (converted)) was 15.8 µM. It also gave an IC50 ([12]; read-out: IC-50 MEAN) of 14.3 µM.
